Assay results from patent publication US20240342292A1, “Compounds for the Degradation of EGFR Kinase” (BeiGene Switzerland GmbH, priority 2021, published 2024).

How the values were obtained:
Del19/T790M/C797S EGFR = assay: EGFR degradation HTRF assay in H1975-clone #28 (DTC) cells; format: cell-based; conditions: H1975 # 28 DTC (Del19/T790M/C797S), 16h treatment; for DC50: HTRF; for Dmax (%): maximum percentage of degradation
Text: (§1) H1975-clone #28(Del19/T790M/C797S, or abbr: DTC), H1975-clone #23(Del19/C797S, or abbr: DC), H1975-clone #25(L858R/T790M/C797S, or abbr: LTC) and H1975-clone #8 (L858R/C797S, or abbr: LC). EGFR-Del19:T790M/C797S, EGFR-Del19/C797S, EGFR-L858R/T790M/C797S and EGFR-L858R/C797S were stably expressed in H1975 cell lines by lentivirus-mediated over-expression, respectively. The EGFR over-expressed cells then underwent knockout, in which the EGFR targeting sgRNA was designed to only target the endogenous EGFR copies and preserve the exogenous EGFR copies. Followed by the knockout, the edited H1975 cells were seeded in 96 well plates at the concentration of […], cultured for about 2 weeks to allow single clones formation. The formed clones were screened by DNA sequencing and whole exon sequencing analysis for the desired edition. H1975-clone #28, H1975-clone #23, H1975-clone #25 and H1975-clone #8 were finally confirmed as homozygous Del19/T790M/C797S EGFR, Dell9/C797S EGFR, L858R/T790M/C797S EGFR and L858R/C797S EGFR clones, respectively.
(§2) H1975-#25, H1975-#28, H1975-#23 and H1975-#8 cells are treated with compounds diluted in 0.2% DMSO cell culture medium on day 2, incubate for 16h, 37° C., 5% CO2. the final concentration of compounds in all assay is start with 10 uM, 5-fold dilution, total 8 doses were included.
(§3) After 16h treatment, add HTRF lysis buffer to each well; seal the plate and incubate 1 hour at room temperature on a plate shaker; Once the cells are lysed, 16 μL of cell lysate are transferred to a PE 384-well HTRF detection plate; 4 μL of pre-mixed HTRF antibodies are added to each well; Cover the plate with a plate sealer, spin 1000 rpm for 1 min, Incubate overnight at room temperature; Read on BMG PheraStar with HTRF protocol (337 nm-665 nm-620 nm).
(§4) The IC50 (DC50) value of a compound can be obtained by fitting the following equation
(§5) Y=Bottom+(TOP−Bottom)/(1+((IC50/X)^hillslope))
(§6) Wherein, X and Y are known values, and IC50, Hillslope, Top and Bottom are the parameters obtained by fitting with software. Y is the inhibition percentage (calculated from the equation), X is the concentration of the compound: IC50 is the concentration of the compound when the 50% inhibition is reached. The smaller the IC50 value is, the stronger the inhibitory ability of the compound is. Vice versa, the higher the IC50 value is, the weaker the ability the inhibitory ability of the compound is: Hillslope represents the slope of the fitted curve, generally around 1*; Bottom represents the minimum value of the curve obtained by data fitting, which is generally 0%±20%; Top represents the maximum value of the curve obtained by data fitting, which is generally 100%±20%. The experimental data were fitted by calculating and analyzing with Dotmatics data analysis software.

L858R/T790M/C797S EGFR = biological target: T1, L858R/T790M/C797S EGFR (Homo sapiens, UniProt P00533, C797S/L858R/T790M); assay: EGFR degradation HTRF assay in H1975-clone #25 (LTC) cells; format: cell-based; conditions: 16h treatment; for DC50: H1975 # 25-LTC (L858R/T790M/C797S), HTRF; for Dmax: NCI-H1975, H1975 # 25-LTC (L858R/T790M/C797S), maximum percentage of degradation
T1 construct: expressed in transfected cells; host or cells: H1975 clone #25 (lentiviral over-expression, endogenous EGFR knocked out by sgRNA)
Text: as §1, §2, §3, §4, §5, §6

T1 sequence (P00533 25-1210 T790M/C797S/L858R): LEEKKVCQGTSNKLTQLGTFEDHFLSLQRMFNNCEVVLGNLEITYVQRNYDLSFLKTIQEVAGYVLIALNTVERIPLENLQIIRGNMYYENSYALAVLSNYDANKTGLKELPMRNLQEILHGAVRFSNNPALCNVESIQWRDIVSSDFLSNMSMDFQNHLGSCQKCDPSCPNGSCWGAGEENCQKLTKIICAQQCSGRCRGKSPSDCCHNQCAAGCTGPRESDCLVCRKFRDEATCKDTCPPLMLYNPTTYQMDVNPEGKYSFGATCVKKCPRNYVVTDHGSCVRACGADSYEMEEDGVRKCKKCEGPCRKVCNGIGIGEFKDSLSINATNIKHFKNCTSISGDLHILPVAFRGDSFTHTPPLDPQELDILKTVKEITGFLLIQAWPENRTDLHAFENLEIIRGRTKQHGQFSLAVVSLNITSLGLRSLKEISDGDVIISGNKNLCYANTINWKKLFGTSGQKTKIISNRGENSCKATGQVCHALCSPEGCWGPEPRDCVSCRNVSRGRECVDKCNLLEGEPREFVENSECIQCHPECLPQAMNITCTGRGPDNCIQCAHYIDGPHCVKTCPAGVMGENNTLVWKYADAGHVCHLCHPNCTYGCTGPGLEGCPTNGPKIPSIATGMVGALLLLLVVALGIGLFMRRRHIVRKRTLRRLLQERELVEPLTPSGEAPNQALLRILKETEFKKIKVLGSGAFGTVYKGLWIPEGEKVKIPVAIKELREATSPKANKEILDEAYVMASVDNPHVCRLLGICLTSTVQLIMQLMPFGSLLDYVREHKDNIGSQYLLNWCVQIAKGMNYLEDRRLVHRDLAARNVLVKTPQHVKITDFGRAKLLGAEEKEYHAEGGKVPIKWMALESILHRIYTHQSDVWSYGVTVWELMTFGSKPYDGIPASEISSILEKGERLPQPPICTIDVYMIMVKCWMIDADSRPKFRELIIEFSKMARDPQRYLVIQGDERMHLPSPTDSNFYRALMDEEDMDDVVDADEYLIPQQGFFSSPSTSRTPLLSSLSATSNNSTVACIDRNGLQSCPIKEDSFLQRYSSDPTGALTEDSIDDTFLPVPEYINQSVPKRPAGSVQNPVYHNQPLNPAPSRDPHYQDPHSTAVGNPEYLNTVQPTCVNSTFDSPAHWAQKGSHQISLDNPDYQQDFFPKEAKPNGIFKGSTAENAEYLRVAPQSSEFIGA

Cc1cc2cc(n1)-c1cnn(C)c1OCCC[C@@H](C)CN1/C(=N/C2=O)Nc2ccc(N3CCN([C@H]4CCN(c5cc(F)c([C@H]6CCC(=O)NC6=O)c(F)c5)C[C@@H]4F)CC3)cc21 (single isomer, unassigned) [Example 424]
DC50 (Del19/T790M/C797S EGFR): 0.794 nM
Dmax (%) (Del19/T790M/C797S EGFR): 82.75%
DC50 (L858R/T790M/C797S EGFR): 2.51 nM
Dmax (L858R/T790M/C797S EGFR): 89.8%

Cc1cc2cc(n1)-c1cnn(C)c1OCCC[C@@H](C)CN1/C(=N/C2=O)Nc2ccc(N3CCN(CCC4CCN(c5cc(F)c([C@H]6CCC(=O)NC6=O)c(F)c5)CC4)CC3=O)cc21 [Example 437, (R)-3-(2,6-difluoro-4-(4-(2-(3-oxo-4-((R,E)-1^1,2^6,7-trimethyl-3-oxo-5^2,5^3-dihydro-1^1H,5^1H-11-oxa-4-aza-5(2,1)-benzo[d]imidazola-2(2,4)-pyridina-1(4,5)-pyrazolacycloundecaphane-5^6-yl)piperazin-1-yl)ethyl)piperidin-1-yl)phenyl)piperidine-2,6-dione]
DC50 (Del19/T790M/C797S EGFR): 0.534 nM
Dmax (%) (Del19/T790M/C797S EGFR): 88.76%
DC50 (L858R/T790M/C797S EGFR): 1.01 nM
Dmax (L858R/T790M/C797S EGFR): 91%

Cc1cc2cc(n1)-c1cnn(C)c1OCCC[C@@H](C)CN1/C(=N/C2=O)Nc2ccc(C(=O)N(C)CC(F)(F)C3CCN(CCc4cc(F)c([C@H]5CCC(=O)NC5=O)c(F)c4)CC3)cc21 [Example 275, (R,E)-N-(2-(1-(4-((R)-2,6-dioxopiperidin-3-yl)-3,5-difluorophenethyl)piperidin-4-yl)-2,2-difluoroethyl)-N,1^1,2^6,7-tetramethyl-3-oxo-5^2,5^3-dihydro-1^1H,5^1H-11-oxa-4-aza-5(2,1)-benzo[d]imidazola-2(2,4)-pyridina-1(4,5)-pyrazolacycloundecaphane-5^6-carboxamide]
DC50 (Del19/T790M/C797S EGFR): 0.798 nM
Dmax (%) (Del19/T790M/C797S EGFR): 78.92%
DC50 (L858R/T790M/C797S EGFR): 1.01 nM
Dmax (L858R/T790M/C797S EGFR): 88.9%

Cc1cc2cc(n1)-c1cnn(C)c1OCCC[C@@H](C)CN1/C(=N/C2=O)Nc2ccc(C3CCN(CC4CCN(c5cc(F)c([C@H]6CCC(=O)NC6=O)c(F)c5)CC4)CC3)cc21 [Example 323, (R)-3-(2,6-difluoro-4-(4-((4-((R,E)-1^1,2^6,7-trimethyl-3-oxo-5^2,5^3-dihydro-1^1H,5^1H-11-oxa-4-aza-5(2,1)-benzo[d]imidazola-2(2,4)-pyridina-1(4,5)-pyrazolacycloundecaphane-5^6-yl)piperidin-1-yl)methyl)piperidin-1-yl)phenyl)piperidine-2,6-dione]
DC50 (Del19/T790M/C797S EGFR): 1.03 nM
Dmax (%) (Del19/T790M/C797S EGFR): 49.97%
DC50 (L858R/T790M/C797S EGFR): 1.03 nM
Dmax (L858R/T790M/C797S EGFR): 63.9%

Cc1cc2cc(n1)-c1cnn(C)c1OCCC[C@@H](C)CN1/C(=N/C2=O)Nc2ccc(C3CCN(C(=O)C4CN(c5cc(F)c([C@H]6CCC(=O)NC6=O)c(F)c5)C4)CC3)cc21 [Example 158, (R)-3-(2,6-difluoro-4-(3-(4-((R,E)-1^1,2^6,7-trimethyl-3-oxo-5^2,5-dihydro-1^1H,5^1H-11-oxa-4-aza-5(2, 1)-benzo[d]imidazola-2(2,4)-pyridina-1(4,5)-pyrazolacycloundecaphane-5^6-yl)piperidine-1-carbonyl)azetidin-1-yl)phenyl)piperidine-2,6-dione]
DC50 (Del19/T790M/C797S EGFR): 0.868 nM
Dmax (%) (Del19/T790M/C797S EGFR): 72.14%
DC50 (L858R/T790M/C797S EGFR): 0.852 nM
Dmax (L858R/T790M/C797S EGFR): 82.2%

Cc1cc2cc(n1)-c1cnn(C)c1OCCC[C@@H](C)CN1/C(=C/C2=O)Nc2ccc(CN3CCC(N4CCC(c5cc(F)c([C@H]6CCC(=O)NC6=O)c(F)c5)CC4)CC3)cc21 [Example 16, (R)-3-(2,6-difluoro-4-(1′-(((R,E)-1^1,2^6,7-trimethyl-3-oxo-5^2,5^3-dihydro-1^1H,5^1H-11-oxa-4-aza-5(2,1)-benzo[d]imidazola-2(2,4)-pyridina-1(4,5)-pyrazolacycloundecaphane-5^6-yl)methyl)-[1,4′-bipiperidin]-4-yl)phenyl)piperidine-2,6-dione]
DC50 (L858R/T790M/C797S EGFR): 10.6 nM
Dmax (L858R/T790M/C797S EGFR): 82.1%

Cc1cc2cc(n1)-c1cnn(C)c1OCCC[C@@H](C)CN1/C(=N/C2=O)Nc2ccc(N3CCC(N(C)C4CCN(c5cc(F)c([C@H]6CCC(=O)NC6=O)c(F)c5)CC4)CC3)cc21 [Example 394, (R)-3-(2,6-difluoro-4-(4-(methyl(1-((R,E)-1^1,2^6,7-trimethyl-3-oxo-5^2,5^3-dihydro-1^1H,5^1H-11-oxa-4-aza-5(2,1)-benzo[d]imidazola-2(2,4)-pyridina-1(4,5)-pyrazolacycloundecaphane-5^6-yl)piperidin-4-yl)amino)piperidin-1-yl)phenyl)piperidine-2,6-dione]
DC50 (Del19/T790M/C797S EGFR): 0.901 nM
Dmax (%) (Del19/T790M/C797S EGFR): 69.35%
DC50 (L858R/T790M/C797S EGFR): 0.787 nM
Dmax (L858R/T790M/C797S EGFR): 74.1%

Cc1cc2cc(n1)-c1cnn(C)c1OCCC[C@@H](C)CN1/C(=N/C2=O)Nc2ccc(CN3CCN(CCc4cc(F)c([C@H]5CCC(=O)NC5=O)c(F)c4)[C@H](C)C3)cc21 [Example 107, (R)-3-(2,6-difluoro-4-(2-((R)-2-methyl-4-(((R,E)-1^1,2^6,7-trimethyl-3-oxo-5^2,5^3-dihydro-1^1H,5^1H-11-oxa-4-aza-5(2,1)-benzo[d]imidazola-2(2,4)-pyridina-1(4,5)-pyrazolacycloundecaphane-5^6-yl)methyl)piperazin-1-yl)ethyl)phenyl)piperidine-2,6-dione]
DC50 (L858R/T790M/C797S EGFR): 0.6 nM
Dmax (L858R/T790M/C797S EGFR): 82.5%

Cc1cc2cc(n1)-c1cnn(C)c1OCCC[C@@H](C)CN1/C(=N/C2=O)Nc2ccc(CN3CC4(CCN(CCc5cc(F)c([C@H]6CCC(=O)NC6=O)c(F)c5)CC4)C3)cc21 [Example 93, (R)-3-(2,6-difluoro-4-(2-(2-(((R,E)-1^1,2^6,7-trimethyl-3-oxo-5^2,5^3-dihydro-1^1H,5^1H-11-oxa-4-aza-5(2,1)-benzo[d]imidazola-2(2,4)-pyridina-1(4,5)-pyrazolacycloundecaphane-5^6-yl)methyl)-2,7-diazaspiro[3.5]nonan-7-yl)ethyl)phenyl)piperidine-2,6-dione]
DC50 (L858R/T790M/C797S EGFR): 1.9 nM
Dmax (L858R/T790M/C797S EGFR): 92.7%

Cc1cc2cc(n1)-c1cnn(C)c1OCCC[C@@H](C)CN1/C(=N/C2=O)Nc2ccc(CN3CCN(C[C@@H]4CCN(c5cc(F)c([C@H]6CCC(=O)NC6=O)c(F)c5)C4)CC3)cc21 [Example 88, (R)-3-(2,6-difluoro-4-((S)-3-((4-(((R,E)-1^1,2^6,7-trimethyl-3-oxo-5^2,5^3-dihydro-1^1H,5^1H-1l-oxa-4-aza-5(2,1)-benzo[d]imidazola-2(2,4)-pyridina-1(4,5)-pyrazolacycloundecaphane-5^6-yl)methyl)piperazin-1-yl)methyl)pyrrolidin-1-yl)phenyl)piperidine-2,6-dione]
DC50 (L858R/T790M/C797S EGFR): 1.5 nM
Dmax (L858R/T790M/C797S EGFR): 78.5%

Cc1cc2cc(n1)-c1cnn(C)c1OCCC[C@@H](C)CN1/C(=N/C2=O)Nc2ccc(CN3CCC4(CC3)CCN(CC3CCN(c5ccc6c(c5)CN(C5CCC(=O)NC5=O)C6=O)CC3)CC4)cc21 (stereo partly drawn) [Example 21, 3-(1-oxo-5-(4-((9-(((R,E)-1^1,2^6,7-trimethyl-3-oxo-5^2,5^3-dihydro-1^1H,5^1H-11-oxa-4-aza-5(2,1)-benzo[d]imidazola-2(2,4)-pyridina-1(4,5)-pyrazolacycloundecaphane-5^6-yl)methyl)-3,9-diazaspiro[5.5]undecan-3-yl)methyl)piperidin-1-yl)isoindolin-2-yl)piperidine-2,6-dione]
DC50 (L858R/T790M/C797S EGFR): 2.7 nM
Dmax (L858R/T790M/C797S EGFR): 77.8%

Cc1cc2cc(n1)-c1cnn(C)c1OCCC[C@@H](C)CN1/C(=N/C2=O)Nc2ccc(CN3CCN(C[C@H]4CCN(c5cc(F)c([C@H]6CCC(=O)NC6=O)c(F)c5)C4)CC3)cc21 [Example 90, (R)-3-(2,6-difluoro-4-((R)-3-((4-(((R,E)-1^1,2^6,7-trimethyl-3-oxo-5^2,5^3-dihydro-^1H,5^1H-11-oxa-4-aza-5(2,1)-benzo[d]imidazola-2(2,4)-pyridina-1(4,5)-pyrazolacycloundecaphane-5^6-yl)methyl)piperazin-1-yl)methyl)pyrrolidin-1-yl)phenyl)piperidine-2,6-dione]
DC50 (L858R/T790M/C797S EGFR): 1.1 nM
Dmax (L858R/T790M/C797S EGFR): 86.9%
